Legend:
Type in all cases: biochemical
ROCK I = ROCK I (Homo sapiens, UniProt Q13464); test: ROCK-I inhibition assay (radioactive enzyme assay, MBP substrate)
Method in brief: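 Human ROCK at 5 nM phosphorylated 27 μM myelin basic protein with 13 μM [γ-33P]ATP (final) in HEPES pH 7.5, MgCl2, NaCl, DTT and 1.5% DMSO. Reactions ran 2 h at room temperature before TCA quench and filter-plate scintillation counting. After background subtraction, data were fit to give Ki(app).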

JAK2 = JAK2 (Homo sapiens, UniProt O60674); test: JAK2 inhibition assay (as Example 3 with JAK-2 enzyme)
Method in brief: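 In HEPES pH 7.4 buffer with 10 mM MgCl2, 1 mM DTT, 25 mM NaCl and 0.01% BSA, JAK2 enzyme phosphorylated poly(Glu)4Tyr (final 15 μM) using 33P-ATP (final 12 μM) for 20 min at room temperature (25 °C). Reactions stopped with TCA; incorporated 33P measured by scintillation after filtration.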

JAK3 = target: T1, JAK3 (Homo sapiens, UniProt P52333); test: JAK3 inhibition assay (33P incorporation into poly(Glu)4Tyr)
T1 sequence (P52333 1-1124): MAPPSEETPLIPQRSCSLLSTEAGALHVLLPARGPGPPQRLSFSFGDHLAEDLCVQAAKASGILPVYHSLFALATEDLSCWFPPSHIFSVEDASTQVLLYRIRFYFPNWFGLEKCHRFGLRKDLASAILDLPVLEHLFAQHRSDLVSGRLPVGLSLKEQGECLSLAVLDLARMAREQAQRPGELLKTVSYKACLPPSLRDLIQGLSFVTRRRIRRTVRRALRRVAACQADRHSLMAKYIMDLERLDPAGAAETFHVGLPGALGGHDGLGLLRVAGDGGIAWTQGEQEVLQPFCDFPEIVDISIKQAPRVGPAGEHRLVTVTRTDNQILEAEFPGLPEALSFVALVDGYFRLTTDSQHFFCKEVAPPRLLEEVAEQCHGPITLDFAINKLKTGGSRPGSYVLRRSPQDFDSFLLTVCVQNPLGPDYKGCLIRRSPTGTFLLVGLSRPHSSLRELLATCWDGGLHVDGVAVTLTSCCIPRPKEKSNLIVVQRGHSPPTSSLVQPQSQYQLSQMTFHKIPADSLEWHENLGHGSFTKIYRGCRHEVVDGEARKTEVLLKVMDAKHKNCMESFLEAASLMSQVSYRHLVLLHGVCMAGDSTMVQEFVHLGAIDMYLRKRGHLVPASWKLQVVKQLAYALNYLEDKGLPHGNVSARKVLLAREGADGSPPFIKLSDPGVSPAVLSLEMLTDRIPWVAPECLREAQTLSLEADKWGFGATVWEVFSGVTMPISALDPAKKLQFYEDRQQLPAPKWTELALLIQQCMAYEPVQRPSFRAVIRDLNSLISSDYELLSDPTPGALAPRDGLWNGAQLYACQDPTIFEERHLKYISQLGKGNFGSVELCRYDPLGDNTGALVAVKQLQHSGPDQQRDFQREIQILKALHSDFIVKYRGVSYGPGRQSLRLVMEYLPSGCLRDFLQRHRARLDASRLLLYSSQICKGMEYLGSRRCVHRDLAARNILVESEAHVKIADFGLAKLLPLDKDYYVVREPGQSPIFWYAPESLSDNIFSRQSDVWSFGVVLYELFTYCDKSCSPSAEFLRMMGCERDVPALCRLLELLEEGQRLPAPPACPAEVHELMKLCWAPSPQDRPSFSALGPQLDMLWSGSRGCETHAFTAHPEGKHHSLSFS
Method in brief: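 After TCA quench and filter harvest, scintillation counting of 33P measured phosphorylation of poly(Glu)4Tyr (1 μM) by 1 nM JAK3. The 20-min, 25° C. reaction contained 5 μM ATP (200 μCi/μmole) in pH 7.4 HEPES buffer with 10 mM MgCl2.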

[1] = enzyme inhibition, Ki(app), Table 5
[2] = Table 6, enzyme inhibition data (Ki)

Chain of JAK2 (O60674 whole entry): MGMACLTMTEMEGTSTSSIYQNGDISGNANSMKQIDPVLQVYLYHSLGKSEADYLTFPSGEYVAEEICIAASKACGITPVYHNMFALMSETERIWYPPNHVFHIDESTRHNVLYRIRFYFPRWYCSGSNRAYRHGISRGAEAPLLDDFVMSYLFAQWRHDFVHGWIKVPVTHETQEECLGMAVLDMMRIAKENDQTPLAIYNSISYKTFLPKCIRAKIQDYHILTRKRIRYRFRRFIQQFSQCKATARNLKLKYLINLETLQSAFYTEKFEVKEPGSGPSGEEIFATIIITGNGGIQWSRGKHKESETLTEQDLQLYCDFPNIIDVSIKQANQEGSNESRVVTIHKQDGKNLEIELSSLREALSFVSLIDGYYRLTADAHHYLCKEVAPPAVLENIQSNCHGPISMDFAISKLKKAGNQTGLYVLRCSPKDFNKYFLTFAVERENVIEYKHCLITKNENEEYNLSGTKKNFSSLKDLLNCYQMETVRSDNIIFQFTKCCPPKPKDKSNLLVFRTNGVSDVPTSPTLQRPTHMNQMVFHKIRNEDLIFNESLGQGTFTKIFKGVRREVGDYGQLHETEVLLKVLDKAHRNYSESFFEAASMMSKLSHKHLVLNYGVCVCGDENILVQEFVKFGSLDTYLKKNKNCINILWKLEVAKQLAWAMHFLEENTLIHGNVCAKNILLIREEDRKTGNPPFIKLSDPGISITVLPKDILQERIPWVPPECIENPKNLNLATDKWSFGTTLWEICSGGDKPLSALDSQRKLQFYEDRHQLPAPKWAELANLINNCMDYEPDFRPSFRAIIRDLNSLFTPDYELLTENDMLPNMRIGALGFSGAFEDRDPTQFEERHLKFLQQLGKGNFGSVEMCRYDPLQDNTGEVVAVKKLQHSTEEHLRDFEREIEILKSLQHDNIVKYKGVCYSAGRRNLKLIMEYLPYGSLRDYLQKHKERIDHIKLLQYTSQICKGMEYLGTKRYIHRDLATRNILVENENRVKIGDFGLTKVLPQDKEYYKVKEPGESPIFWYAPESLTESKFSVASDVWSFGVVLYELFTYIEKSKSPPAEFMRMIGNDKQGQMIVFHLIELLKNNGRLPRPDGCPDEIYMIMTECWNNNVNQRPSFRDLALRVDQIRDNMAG
Chain of ROCK I (Q13464 whole entry): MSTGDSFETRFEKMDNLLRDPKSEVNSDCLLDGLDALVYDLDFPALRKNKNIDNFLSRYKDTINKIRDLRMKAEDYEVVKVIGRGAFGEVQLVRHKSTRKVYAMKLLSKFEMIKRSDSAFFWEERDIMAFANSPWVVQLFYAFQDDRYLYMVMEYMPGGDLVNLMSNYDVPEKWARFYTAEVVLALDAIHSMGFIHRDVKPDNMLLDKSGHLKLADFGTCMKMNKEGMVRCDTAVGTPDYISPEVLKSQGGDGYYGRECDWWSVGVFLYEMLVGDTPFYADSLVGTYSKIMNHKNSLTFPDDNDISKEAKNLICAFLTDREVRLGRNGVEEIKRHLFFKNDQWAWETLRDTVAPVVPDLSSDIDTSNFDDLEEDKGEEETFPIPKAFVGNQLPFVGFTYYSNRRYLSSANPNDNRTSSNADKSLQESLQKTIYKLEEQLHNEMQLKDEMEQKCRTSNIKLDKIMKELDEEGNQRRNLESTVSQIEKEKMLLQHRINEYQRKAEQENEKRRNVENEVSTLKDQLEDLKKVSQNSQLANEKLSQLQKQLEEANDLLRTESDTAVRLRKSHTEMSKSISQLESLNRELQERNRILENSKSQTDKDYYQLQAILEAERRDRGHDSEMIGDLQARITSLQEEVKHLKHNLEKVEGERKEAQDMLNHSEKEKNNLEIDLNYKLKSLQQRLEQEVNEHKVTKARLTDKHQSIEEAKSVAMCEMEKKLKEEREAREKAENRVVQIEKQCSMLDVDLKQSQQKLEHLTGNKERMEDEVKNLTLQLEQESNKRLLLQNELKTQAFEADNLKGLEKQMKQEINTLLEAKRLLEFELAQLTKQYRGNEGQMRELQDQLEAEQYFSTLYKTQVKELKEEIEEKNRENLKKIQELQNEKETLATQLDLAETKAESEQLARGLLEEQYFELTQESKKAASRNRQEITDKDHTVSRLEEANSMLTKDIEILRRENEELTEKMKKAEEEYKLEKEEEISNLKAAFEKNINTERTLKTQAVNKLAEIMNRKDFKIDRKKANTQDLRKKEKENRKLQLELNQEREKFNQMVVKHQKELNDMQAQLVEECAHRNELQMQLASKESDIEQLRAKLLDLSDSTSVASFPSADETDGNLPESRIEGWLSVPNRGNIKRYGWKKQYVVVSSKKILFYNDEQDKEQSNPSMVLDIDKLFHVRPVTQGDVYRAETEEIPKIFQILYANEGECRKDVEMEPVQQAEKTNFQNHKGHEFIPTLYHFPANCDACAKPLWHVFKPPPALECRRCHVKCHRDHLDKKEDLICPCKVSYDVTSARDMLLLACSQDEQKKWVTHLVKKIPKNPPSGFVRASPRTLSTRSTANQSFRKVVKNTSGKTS

O=C(c1cccc(-c2ccnc3[nH]ccc23)c1)N1CCOCC1 [compound 94, Morpholin-4-yl-[3-(1H-pyrrolo[2,3-b]pyridin-4-yl)-phenyl]-methanone]
Ki (ROCK I; [1]): 0.5 to 5 µM | Ki (JAK2; enzyme inhibition, Table 5): 0.5 to 5 µM | Ki (JAK3; enzyme inhibition, Table 5): 0.5 to 5 µM

CC[C@@H](C)NC(=O)c1cc(-c2ccnc3[nH]ccc23)c[nH]1 [compound 289]
Ki (ROCK I; [2]): < 0.5 µM | Ki (JAK2; [2]): < 0.5 µM | Ki (JAK3; [2]): < 0.5 µM

O=C(CNc1nc(-c2ccnc3[nH]ccc23)nc2ccccc12)NCC(F)(F)F [compound 196]
Ki (ROCK I; [2]): > 4 µM | Ki (JAK2; [2]): 0.5 to 5 µM | Ki (JAK3; [2]): 0.5 to 5 µM

CC(C)CNc1cccc(-c2ccnc3[nH]ccc23)n1 [compound 20]
Ki (ROCK I; [1]): 0.5 to 5 µM | Ki (JAK2; enzyme inhibition, Table 5): 0.5 to 5 µM | Ki (JAK3; enzyme inhibition, Table 5): 0.5 to 5 µM

O=C(c1csc(-c2ccnc3[nH]ccc23)n1)N1CCCC1 [compound 418]
Ki (ROCK I; [2]): < 0.5 µM | Ki (JAK2; [2]): < 0.5 µM | Ki (JAK3; [2]): 0.5 to 5 µM

FC(F)(F)Oc1ccccc1-c1ccnc2[nH]ccc12 [compound 206]
Ki (ROCK I; [2]): > 4 µM | Ki (JAK2; [2]): 0.5 to 5 µM | Ki (JAK3; [2]): 0.5 to 5 µM

CC1CCC(C)N1C(=O)c1cc(-c2c(Cl)cnc3[nH]ccc23)c[nH]1 (stereo not drawn) [compound 359]
Ki (ROCK I; [2]): 0.5 to 5 µM | Ki (JAK2; [2]): < 0.5 µM | Ki (JAK3; [2]): < 0.5 µM

Clc1cnc2[nH]ccc2c1-c1cccs1 [compound 135]
Ki (ROCK I; [2]): < 0.5 µM | Ki (JAK2; [2]): < 0.5 µM | Ki (JAK3; [2]): < 0.5 µM

C[C@@H]1CC[C@H](C)N1C(=O)c1csc(-c2ccnc3[nH]ccc23)n1 [compound 417]
Ki (ROCK I; [2]): < 0.5 µM | Ki (JAK2; [2]): < 0.5 µM | Ki (JAK3; [2]): < 0.5 µM

Clc1cnc2[nH]ccc2c1-c1ccoc1 [compound 139]
Ki (ROCK I; [2]): 0.5 to 5 µM | Ki (JAK2; [2]): < 0.5 µM | Ki (JAK3; [2]): < 0.5 µM

C[C@H](Nc1cccc(-c2ccnc3[nH]ccc23)n1)C(=O)NCC(F)(F)F [compound 122, (S)-2-(6-(1H-pyrrolo[2,3b]pyridin-4-yl)pyridin-2-ylamino)-N-(2,2,2-trifluoroethyl)propanamide]
Ki (ROCK I; [1]): 0.5 to 5 µM | Ki (JAK2; enzyme inhibition, Table 5): 0.5 to 5 µM | Ki (JAK3; enzyme inhibition, Table 5): < 0.5 µM

CCCN(CC(F)(F)F)C(=O)c1csc(-c2ccnc3[nH]ccc23)n1 [compound 407]
Ki (ROCK I; [2]): < 0.5 µM | Ki (JAK2; [2]): < 0.5 µM | Ki (JAK3; [2]): < 0.5 µM

CS(=O)(=O)N1CCCC(Nc2c(Cl)cnc3[nH]ccc23)C1 (stereo not drawn) [compound 182]
Ki (ROCK I; [2]): 0.5 to 5 µM | Ki (JAK2; [2]): < 0.5 µM | Ki (JAK3; [2]): < 0.5 µM

CC(C)CCNC(=O)c1csc(-c2ccnc3[nH]ccc23)n1 [compound 413]
Ki (ROCK I; [2]): 0.5 to 5 µM | Ki (JAK2; [2]): < 0.5 µM | Ki (JAK3; [2]): 0.5 to 5 µM

O=C(NCC(F)(F)F)[C@@H]1CCCN1c1nc(-c2ccnc3[nH]ccc23)ncc1F [compound 199]
Ki (ROCK I; [2]): > 4 µM | Ki (JAK2; [2]): 0.5 to 5 µM | Ki (JAK3; [2]): < 0.5 µM

CC(C)(C)OC(=O)n1cccc1-c1c(Cl)cnc2[nH]ccc12 [compound 143]
Ki (ROCK I; [2]): > 4 µM | Ki (JAK2; [2]): 0.5 to 5 µM | Ki (JAK3; [2]): > 5 µM

c1cc(-c2ccnc3[nH]ccc23)nc(N2CCC[C@H]2CN2CCCC2)c1 [compound 54]
Ki (ROCK I; [1]): 0.5 to 5 µM | Ki (JAK2; enzyme inhibition, Table 5): > 5 µM | Ki (JAK3; enzyme inhibition, Table 5): > 5 µM

CC(C)NC(=O)c1cc(-c2ccnc3[nH]ccc23)c[nH]1 [compound 264]
Ki (ROCK I; [2]): < 0.5 µM | Ki (JAK2; [2]): < 0.5 µM | Ki (JAK3; [2]): < 0.5 µM

CN(C)CCN(C)c1cccc(-c2c(Cl)cnc3[nH]ccc23)n1 [compound 83]
Ki (ROCK I; [1]): 0.5 to 5 µM | Ki (JAK2; enzyme inhibition, Table 5): < 0.5 µM | Ki (JAK3; enzyme inhibition, Table 5): < 0.5 µM

CCCCN(CCC#N)C(=O)c1cc(-c2c(Cl)cnc3[nH]ccc23)c[nH]1 [compound 336]
Ki (ROCK I; [2]): 0.5 to 5 µM | Ki (JAK2; [2]): < 0.5 µM | Ki (JAK3; [2]): < 0.5 µM

CCOC(=O)C1CCN(C(=O)c2cc(-c3ccnc4[nH]ccc34)c[nH]2)CC1 [compound 364]
Ki (ROCK I; [2]): 0.5 to 5 µM | Ki (JAK2; [2]): 0.5 to 5 µM | Ki (JAK3; [2]): 0.5 to 5 µM

Cc1ccc(C)c(-c2ccnc3[nH]ccc23)c1 [compound 209]
Ki (ROCK I; [2]): < 0.5 µM | Ki (JAK2; [2]): > 5 µM | Ki (JAK3; [2]): > 5 µM

CCCOC(=O)N1CCCC(Nc2c(Cl)cnc3[nH]ccc23)C1 (stereo not drawn) [compound 174]
Ki (ROCK I; [2]): 0.5 to 5 µM | Ki (JAK2; [2]): < 0.5 µM | Ki (JAK3; [2]): < 0.5 µM

— US8921376B2, “Pyrrolopyridines useful as inhibitors of protein kinase” (Vertex Pharmaceuticals Incorporated, priority 2005, dated 2014)
